From ChEMBL document CHEMBL1126672, “1,3-dioxolanylpurine nucleosides (2R,4R) and (2R,4S) with selective anti-HIV-1 activity in human lymphocytes” (J Med Chem, 1993)
Each block holds one compound with its values, some of them ahead of it.

Tests used:
[1] = Cytotoxicity against uninfected PHA-stimulated human peripheral blood mononuclear (PBM) cells was determined.; type: cell-based
[2] = system: CCRF-CEM; assay: Cytotoxicity against uninfected PHA-stimulated CEM cells was determined.; type: cell-based; settings: Homo sapiens
[3] = Antiviral activity was evaluated in mitogen-stimulated human peripheral blood mononuclear (PBM) cells infected with HIV-1 strain LAV.; type: functional
[4] = system: Vero; assay: Cytotoxicity against uninfected PHA-stimulated vero cells was determined.; type: cell-based; settings: Chlorocebus sabaeus
[5] = system: Vero; assay: Cytotoxicity against uninfected PHA-stimulated vero cells was determined; type: cell-based; settings: Chlorocebus sabaeus
[6] = system: CCRF-CEM; assay: Cytotoxicity against uninfected PHA-stimulated CEM cells was determined; type: cell-based; settings: Homo sapiens
[7] = Antiviral activity was evaluated in mitogen-stimulated human peripheral blood mononuclear (PBM) cells infected with HIV-1 strain LAV; type: functional
[8] = Cytotoxicity against uninfected PHA-stimulated human peripheral blood mononuclear (PBM) cells was determined; type: cell-based

EC50 [3]: 26.5 µM
SMILES: OC[C@@H]1OC[C@H](n2cnc3c(S)ncnc32)O1
IC50 [1]: > 100 µM | IC50 [2]: > 100 µM | IC50 [4]: > 100 µM

EC50 [7]: 25.1 µM
SMILES: CSc1ncnc2c1ncn2[C@H]1CO[C@@H](CO)O1
IC50 [5]: > 100 µM | IC50 [6]: > 100 µM | IC50 [8]: > 100 µM

EC50 [3]: 39.9 µM
SMILES: Nc1nc(Cl)nc2c1ncn2[C@@H]1CO[C@@H](CO)O1
IC50 [1]: > 100 µM | IC50 [2]: > 100 µM | IC50 [4]: > 100 µM

EC50 [3]: 22.8 µM
SMILES: OC[C@@H]1OC[C@H](n2cnc3c(Cl)ncnc32)O1
IC50 [1]: > 100 µM | IC50 [2]: > 100 µM | IC50 [4]: > 100 µM

EC50 [3]: 11.1 µM
SMILES: OC[C@@H]1OC[C@@H](n2cnc3c(Cl)ncnc32)O1
IC50 [1]: > 100 µM | IC50 [2]: 57.6 µM | IC50 [4]: > 100 µM

Second part, the compound before the results:

SMILES: CNc1nc(Cl)nc2c1ncn2[C@H]1CO[C@@H](CO)O1
IC50 [1]: > 100 µM | IC50 [2]: > 100 µM | EC50 [3]: 40 µM | IC50 [4]: > 100 µM

SMILES: Cc1cn([C@H]2C[C@H](N=[N+]=[N-])[C@@H](CO)O2)c(=O)[nH]c1=O [ZIDOVUDINE]
IC50 [1]: > 100 µM | IC50 [2]: 30.9 µM | EC50 [3]: 0.004 µM

SMILES: Nc1nc(Cl)nc2c1ncn2[C@H]1CO[C@@H](CO)O1
IC50 [1]: > 100 µM | IC50 [2]: > 100 µM | EC50 [3]: 1.7 µM | IC50 [4]: > 100 µM

SMILES: Nc1nc2c(ncn2[C@H]2CO[C@@H](CO)O2)c(=O)[nH]1
IC50 [5]: > 100 µM | IC50 [6]: > 100 µM | EC50 [7]: 0.03 µM | IC50 [8]: > 100 µM
